Data published in patent US5380724A, “Piperazine and homopiperazine derivatives, pharmaceutical compositions containing them and process for preparing same” (Gyogyszerkutato Intezet KFT, priority 1992, dated 1995).

What was measured:
[1] = tested on: rat brain homogenate (ferrous ion dependent lipid peroxidation); assay: ferrous ion dependent lipid peroxidation inhibitory activity on rat brain homogenate (thiobarbituric acid reactive substances); format: biochemical; conditions: Fe2+ dependent lipid peroxidation, TBARS
Description: 1. The ferrous ion dependent lipid peroxidation inhibitory activity was measured on rat brain homogenate by using the method descibed by J. M. Braughler et al., [J. Biol. Chem. 262, 10438 (1987)] and J. A. Buege and S. D. […] The IC50 value is defined as the concentration of a test substance which reduces by 50% the amount of the thiobarbituric acid reactive substances (chiefly malondialdehyde) considered to be a characteristic parameter of lipid peroxidation.

[2] = tested on: NADPH dependent lipid peroxidation; assay: inhibition of the NADPH dependent lipid peroxidation; format: biochemical
Description: 3. Inhibiton of the NADPH dependent lipid peroxidation was measured according to T. J. Player and A. A. Horton [J. Neurochem. 37, 422 (1981)] and Z. Duniec [Biochem. Pharmacol. 32, 2283 (1983)]. The IC50 values (expressed in micromols) of some compounds of the invention, further those of the reference compounds determined in this test are given in Table 3.

acute brain injury = assay: inhibition of acute brain injury of mice (improvement in the neurological state); format: in vivo; conditions: intravenous, 20 mg/kg
Source text: 1. […] 68, 456 (1988)]. The doses of the test compounds administered by the intravenous route and the percentage of improvement in the neurological state are summarized in Table 4.

[3] = tested on: ischemia induced weight increase of the small intestine; assay: inhibition of ischemia induced weight increase of a definite section in the small intestine of rats; format: in vivo; conditions: Rattus norvegicus, 25 mg/kg oral
Description: 2. […] The percentage of inhibition observed after administration of a 25 mg/kg oral dose of the compounds of the invention or of the reference compounds is shown in Table 5.

acute toxicity in rats = format: in vivo; conditions: rat, in vivo, oral
rats = assay: acute toxicity in rats; format: in vivo; conditions: 1000 mg/kg oral
[4] = tested on: arachidonic acid (ferrous ion dependent peroxidation); assay: inhibition of the ferrous ion dependent peroxidation of arachidonic acid; format: biochemical; conditions: Fe2+ dependent peroxidation of arachidonic acid
Description: 2. The inhibition of the ferrous ion dependent peroxidation of arachidonic acid was also measured by the method of J. M. Braughler et al. [J. Biol. Chem. 262, 10438 (1987)] and J. A. Buege and S. D. Aust [Methods in Enzymology 52, 302 (1978)]. The IC50 values (expressed in micromols) of some compounds of the invention, further those of the reference compounds determined in this test are shown in Table 2.

SMILES | IC50 [1] [µM] | IC50 [2] [µM] | Improvement (in the neurological state) (acute brain injury) [%] | inhibition in vivo at 25 mg/kg [3] [%] | LD50 (acute toxicity in rats) [mg/kg] | death of treated animals (rats) | IC50 [4] [µM]
OC(COc1ccc2ccccc2c1)CN1CCCN(c2cc(N3CCCC3)nc(N3CCCC3)n2)CC1 (centres unmarked) [Example 27] | 8 | 22 | 82 | 60 | > 1000 | did not provoke death of any of the treated animals | –
Nc1nc(N)c2nc(-c3ccc(OCC(O)CN4CCNCC4)cc3)c(N)nc2n1 (centres unmarked) [Example 50, 6-[4-[2-Hydroxy-3-(1-piperazinyl)propoxy]phenyl]-2,4,7-triamino-pteridine] | – | – | 93 | 78 | > 1000 | did not provoke death of any of the treated animals | 15
